Test results from PMC3530532, “Corticosteroid-Binding Globulin: Structure-Function Implications from Species Differences” (PLoS ONE, 2012).

Tests used:
[1] = target: T1, Human CBG-WT (Homo sapiens, UniProt P08185, K148A); assay: Isothermal titration calorimetry, steroid titrated to uncleaved human CBG-WT; type: binding; conditions: ITC, 25°C
T1 construct: residues 11 to 383 of human CBG (Swiss-Prot entry P08185); GST (N, cleaved yes); made in house; host or cells: E. coli BL21 Star (DE3)
T1 sequence (P08185 33-405 K148A): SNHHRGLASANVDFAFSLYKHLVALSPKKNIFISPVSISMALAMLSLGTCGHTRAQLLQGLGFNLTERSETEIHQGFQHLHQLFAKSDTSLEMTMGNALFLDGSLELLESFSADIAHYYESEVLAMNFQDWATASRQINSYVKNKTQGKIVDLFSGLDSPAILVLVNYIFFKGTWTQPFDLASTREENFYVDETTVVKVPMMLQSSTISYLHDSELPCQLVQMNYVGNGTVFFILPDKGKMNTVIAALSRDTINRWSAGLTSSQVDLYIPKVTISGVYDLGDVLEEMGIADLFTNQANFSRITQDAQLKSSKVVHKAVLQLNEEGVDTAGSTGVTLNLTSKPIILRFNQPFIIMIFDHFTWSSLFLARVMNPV
Description: The coding sequences of residues 11 to 383 of human CBG (Swiss-Prot entry P08185) and residues 5 to 374 of rat CBG (P31211) were cloned into a pGEX-2T vector (GE Healthcare, Uppsala), yielding N-terminal glutathione-S-transferase (GST) fusion proteins. Mutations were introduced using a two-stage PCR procedure based on the QuikChange (Stratagene, Santa Clara) site-directed mutagenesis protocol. All experiments with human CBG were conducted with a mutant in which surface residue Lys126 was replaced by alanine in order to facilitate crystallization. Wild-type rat CBG (rat CBG-WT) and rat CBG mutants CBG-RCL1, CBG-RCL2 and CBG-RCL3 were produced to probe the function of the RCL residues in rat CBG. All gene constructs were confirmed by DNA sequencing prior to protein production.
The GST-tagged human and rat CBG variants were produced in E. coli BL21 Star™ (DE3) cells (Invitrogen, Carlsbad) using the ZYM-5052 auto-inducing medium. For each variant, 10 L of ZYM-5052 medium containing 100 µg/mL ampicillin were inoculated with an overnight culture of a single clone. The flasks were incubated at 37°C until the optical density at 600 nm reached 0.3. The temperature was then lowered to 20°C, and the cells were allowed to grow for an additional 20 h. The pellet was resuspended in PBS buffer (pH 7.4) containing 5 mM EDTA after cell harvesting (4 mL of buffer per gram of pellet).
The protein samples were dialyzed against ITC buffer (20 mM potassium phosphate, 50 mM NaCl, pH 7.4) and titrated with steroids in a VP-ITC microcalorimeter (Microcal, Piscataway). All solutions were filtered (0.2 µm filter pore size) and degassed for 30 min prior to the titration experiments. The sample cell was filled with protein solution containing 15 µM rat CBG or 20 µM human CBG and titrated with steroid solutions containing 150 µM and 200 µM ligand, respectively. The titrations consisted of an initial injection of 2 µL followed by 25 consecutive injections of 10 µL ligand solution at 25°C. A spacing of 240 sec between the injections was used to allow a return to the baseline. Data points from the initial injection, which are generally affected by diffusion during the initial equilibration period after experiment setup, were discarded prior to data analysis. […] The binding curve was generated by plotting the heats of injections against the ratio of ligand to protein in the cell. Integrated heat data were analyzed using nonlinear regression fit with a one-site-binding model in the Origin-7™ software provided with the VP-ITC. Changes in the free energy and entropy can be calculated using the equation: ΔG° = −RTlnK = ΔH°−TΔS°. In this equation ΔG° is the change in Gibbs free energy, R the universal gas constant, T the temperature, and K the association constant. […]

[2] = target: T2, Cleaved human CBG-WT (Homo sapiens, UniProt P08185, K148A); assay: Isothermal titration calorimetry, steroid titrated to neutrophil elastase-cleaved human CBG-WT; type: binding; conditions: ITC, 25°C
T2 construct: residues 11 to 383 of human CBG (Swiss-Prot entry P08185); GST (N, cleaved yes); made in house; host or cells: E. coli BL21 Star (DE3)
T2 sequence (P08185 33-366 K148A): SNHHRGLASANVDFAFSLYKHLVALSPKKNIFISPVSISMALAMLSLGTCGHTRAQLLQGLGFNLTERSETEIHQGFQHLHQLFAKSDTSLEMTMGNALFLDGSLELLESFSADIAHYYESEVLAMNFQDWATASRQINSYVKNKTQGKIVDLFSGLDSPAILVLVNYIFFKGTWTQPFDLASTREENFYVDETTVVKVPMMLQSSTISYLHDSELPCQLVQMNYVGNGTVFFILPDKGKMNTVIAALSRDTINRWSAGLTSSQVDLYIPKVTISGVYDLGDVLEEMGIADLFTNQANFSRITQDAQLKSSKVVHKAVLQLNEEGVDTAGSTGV
T2 sequence (P08185 367-405): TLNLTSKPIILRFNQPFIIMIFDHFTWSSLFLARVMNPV
Description: (§1) Cleavage of the RCL in human and rat CBG mutants was accomplished with 100 mU human neutrophil elastase (Sigma-Aldrich) per mg purified CBG at 30°C and monitored by SDS-PAGE. The cleavage reaction was stopped with AEBSF. The protein samples were dialyzed against ITC buffer (20 mM potassium phosphate, 50 mM NaCl, pH 7.4) and titrated with steroids in a VP-ITC microcalorimeter (Microcal, Piscataway). All solutions were filtered (0.2 µm filter pore size) and degassed for 30 min prior to the titration experiments. The sample cell was filled with protein solution containing 15 µM rat CBG or 20 µM human CBG and titrated with steroid solutions containing 150 µM and 200 µM ligand, respectively. The titrations consisted of an initial injection of 2 µL followed by 25 consecutive injections of 10 µL ligand solution at 25°C. A spacing of 240 sec between the injections was used to allow a return to the baseline. Data points from the initial injection, which are generally affected by diffusion during the initial equilibration period after experiment setup, were discarded prior to data analysis. […] The binding curve was generated by plotting the heats of injections against the ratio of ligand to protein in the cell. Integrated heat data were analyzed using nonlinear regression fit with a one-site-binding model in the Origin-7™ software provided with the VP-ITC. Changes in the free energy and entropy can be calculated using the equation: ΔG° = −RTlnK = ΔH°−TΔS°. In this equation ΔG° is the change in Gibbs free energy, R the universal gas constant, T the temperature, and K the association constant. The change in enthalpy is denoted as ΔH°, and ΔS° is the change in entropy under standard conditions. The data shown in Table 2 were obtained from single titrations of each complex.

[3] = system: Cleaved human CBG-WT; assay: as above; type: binding; conditions: human CBG, uncleaved vs neutrophil elastase-cleaved, ITC 25°C
Description: as §1

[4] = system: CBG; conditions: cited from earlier work

Compound: C[C@]12CCC(=O)C=C1CC[C@@H]1[C@@H]2[C@@H](O)C[C@@]2(C)[C@H]1CC[C@]2(O)C(=O)CO [Hydrocortisone]
- Kd ([1]; single titration, uncleaved human CBG-WT (K126A, E. coli produced)): 0.045 ± 0.007 µM
- TΔS° ([1]; uncleaved human CBG-WT): -109.1 kJ/mol
- ΔG° ([1]; uncleaved human CBG-WT): -42.1 kJ/mol
- ΔH° ([1]; uncleaved human CBG-WT): -151.2 kJ/mol
- TΔS° ([2]; cleaved human CBG-WT): -78.4 kJ/mol
- ΔG° ([2]; cleaved human CBG-WT): -36.3 kJ/mol
- ΔH° ([2]; cleaved human CBG-WT): -114.7 kJ/mol
- Kd ([2]; single titration, elastase-cleaved human CBG-WT): 0.442 ± 0.01 µM
- reduction in binding affinity upon RCL cleavage [3]: ten-fold
- fraction circulating free in plasma [4]: 4–5%
- fraction of cortisol in plasma bound by CBG [4]: 80–90%
